Test results from patent publication US9593305B2, “Differentiation of pluripotent stem cells” (Janssen Biotech, Inc., priority 2008, dated 2017).

System: H1 human embryonic stem cells
Experiment: Analog screening with GDF-8 and growth factor/agonist pool (Example 8, Tables 7 and 8)
Assay type: cell-based
Parameters: Cell Number, % of positive control / Sox17 Expression, % of positive control: tested at 2.5 µM
Details: for outcome in analog screening of hits from primary screening: 2.5 μM with GDF-8 and growth factor/agonist pool
Outline: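 H1 hESC clusters, washed free of growth factors, fed on alternate days over 4 days with DMEM:F12, 0.5% FCS, 2.5 μM compound, 25 ng/ml GDF-8 plus a 50 ng/ml growth-factor pool. Fixed cells immunostained for SOX17 and imaged; total SOX17 intensity normalised to positive control.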

[1] = Plate 2, compound + EGF, FGF, PDGF-A, VEGF, PDGF-D, muscimol, GDF8
[2] = Plate 2, compound + EGF, FGF, PDGF-A, VEGF, PDGF-D, muscimol, GDF8, positive control Activin A/Wnt3a
[3] = Table 8: hits with greater than 25% activity of the positive control, with GDF-8 and growth factors/agonists
[4] = EGF, FGF, PDGF-A, VEGF, PDGF-D, muscimol, GDF8
[5] = Plate 1, compound + EGF, FGF, PDGF-A, VEGF, PDGF-D, muscimol, GDF8
[6] = Plate 1, compound + EGF, FGF, PDGF-A, VEGF, PDGF-D, muscimol, GDF8, positive control Activin A/Wnt3a

Structure (SMILES)	outcome in analog screening of hits from primary screening	Cell Number, Average Total Cell Number [1]	Sox17 Expression, Average Total Intensity [1]	Cell Number, % of positive control [2]	Sox17 Expression, % of positive control [2]	Cell Number, % of positive control [3]	Sox17 Expression, % of positive control [3]	Sox17 Expression, Average Total Intensity [3]	Cell Number, % of positive control [4] [%]	Cell Number, Average Total Cell Number [4]	Sox17 Expression, % of positive control [4] [%]	Sox17 Expression, Average Total Intensity [4]	Cell Number, Average Total Cell Number [5]	Sox17 Expression, Average Total Intensity [5]	Cell Number, % of positive control [6]	Sox17 Expression, % of positive control [6]
CCN1CC(=O)NCCCc2cncc(c2)-c2ncnc(n2)Nc2cc(Cl)cc(c2)C1 [Compound 35, 10-Chloro-14-ethyl-3,5,7,14,17,23,27-heptaazatetracyclo[19.3.1.1˜2,6˜0.1˜8,12]Theptacosa-1(25), 2(27), 3,5,8(26), 9,11,21,23-nonaen-16-one]	repeated as hits	10461	1.59E+08	66.2 % of positive control	55.7 % of positive control	66.2 % of positive control	55.7 % of positive control	1.59E+08	–	–	–	–	–	–	–	–
CCN1CC(=O)NCCCc2cccc(c2)-c2ncnc(n2)Nc2cccc(c2)C1 [Compound 15, 14-Ethyl-3,5,7,14,17,27-hexaazatetracyclo[19.3.1.1˜2,6˜1-8.12˜]heptacosa-1(25), 2(27), 3,5,8(26), 9,11,21,23-nonaen-16-one]	–	–	–	–	–	–	–	–	45.8	7234	27.8	7.95E+07	8448	8.64E+07	63.1 % of positive control	34.5 % of positive control
CN1CCC(=O)NCCCNc2cccc(c2)-c2ncnc(n2)Nc2cccc(c2)C1 [Compound 21, 14-Methyl-3,5,7,14,18,22,29-heptaazatetracyclo[21.3.1.1˜2,6˜0.1˜8,12˜]nonacosa-1(27), 2(29), 3,5,8(28), 9,11,23,25-nonaen-17-one]	–	–	–	–	–	94.4 % of positive control	65.9 % of positive control	1.65E+08	–	–	–	–	12640	1.65E+08	94.4 % of positive control	65.9 % of positive control
O=C1NCCCc2cncc(c2)-c2ncnc(n2)Nc2cccc(c2)CN2CCCC1C2 (stereo not shown) [Compound 17, 3,5,7,14,20,26,31-Heptaazapentacyclo[22.3.1.1-2,6˜1˜8,12˜1˜14,18˜]hentriaconta-1(28), 2(31), 3,5,8(30), 9,11,24,26-nonaen-19-one]	–	–	–	–	–	–	–	–	59.6	7988	45.0	1.13E+08	–	–	–	–
CN1CCC(=O)NCCCc2cncc(c2)-c2ncnc(n2)Nc2cccc(c2)C1 [Compound 19, 14-Methyl-3,5,7,14,18,24,28-heptaazatetracyclo[20.3.1.1˜2,6˜0.1˜8,12˜]octacosa-1(26), 2(28), 3,5,8(27), 9,11,22,24-nonaen-17-one]	–	8425	1.19E+08	53.3 % of positive control	41.6 % of positive control	–	–	–	58.2	7799	27.2	6.82E+07	–	–	–	–
O=C1CCN2CCN(CC2)Cc2cccc(c2)Nc2ncnc(n2)-c2ccnc(c2)NCCCN1 [Compound 13, 1,8,10,12,17,19,23,27,33-Nonaazapentacyclo[25.2.2.1˜3,7˜0.1˜9.13˜1˜14.18˜]tetratriaconta-3(34), 4,6,9(33), 10,12,14(32), 15,17-nonaen-24-one]	–	9123	1.13E+08	57.7 % of positive control	39.7 % of positive control	–	–	–	52.6	7045	28.8	7.22E+07	–	–	–	–
C=CCN1CC(=O)NCCCc2cncc(c2)-c2ncnc(n2)Nc2cccc(c2)C1 [Compound 40, 14-Prop-2-en-1-yl-3,5,7,14,17,23,27-heptaazatetracyclo[19.3.1.1˜2.6˜0.1˜8,12˜]heptacosa-1(25), 2(27), 3,5,8(26), 9,11,21,23-nonaen-16-one]	–	4049	8.23E+07	25.6 % of positive control	28.8 % of positive control	25.6 % of positive control	28.8 % of positive control	8.23E+07	–	–	–	–	–	–	–	–
O=C1NCCCc2cncc(c2)-c2ncnc(n2)Nc2cccc(c2)CN2CCC[C@@H]12 [Compound 18, (18S)-3,5,7,14,20,26,30-Heptaazapentacyclo[22.3.1.1˜2,6˜1˜8,12˜0.0˜14,18˜]triaconta-1(28), 2(30), 3,5,8(29), 9,11,24,26-nonaen-19-one]	–	–	–	–	–	–	–	–	55.3	8742	35.4	1.01E+08	13037	1.63E+08	97.3 % of positive control	65.2 % of positive control
CCN1CC(=O)NCCCc2cc(ccn2)-c2ncnc(n2)Nc2cc(Cl)cc(c2)C1 [Compound 14, 10-Chloro-14-ethyl-3,5,7,14,17,22,27-heptaazatetracyclo[19.3.1.1˜2,6˜1˜8,12˜]heptacosa-1(25), 2(27), 3,5,8(26), 9,11,21,23-nonaen-16-one]	–	–	–	–	–	–	–	–	53.5	8464	29.1	8.33E+07	9344	1.23E+08	69.8 % of positive control	49.0 % of positive control
O=C1CCN2CCN(CC2)Cc2cccc(c2)Nc2ncnc(n2)-c2cncc(c2)CCCN1 [Compound 23, 1,8,10,12,16,22,26,32-Octaazapentacyclo[24.2.2.1-3,7˜0.1˜9,13˜0.1˜14,18˜]tritriaconta-3(33), 4,6,9(32), 10,12,14(31), 15,17-nonaen-23-one]	–	–	–	–	–	90.8 % of positive control	86.0 % of positive control	2.15E+08	–	–	–	–	12165	2.15E+08	90.8 % of positive control	86.0 % of positive control
CN1CCCC(=O)NCCCc2cncc(c2)-c2ncnc(n2)Nc2cccc(c2)C1 [Compound 20, 14-Methyl-3,5,7,14,19,25,29-heptaazatetracyclo[21.3.1.1˜2,6˜0.1˜8,12˜]nonacosa-1(27), 2(29), 3,5,8(28), 9,11,23,25-nonaen-18-one]	–	7346	8.90E+07	46.5 % of positive control	31.2 % of positive control	–	–	–	70.4	9434	59.1	1.48E+08	9434	1.48E+08	70.4 % of positive control	59.1 % of positive control
O=C1CCN2CCN(CC2)Cc2cc(Cl)cc(c2)Nc2ncnc(n2)-c2cncc(c2)CCCN1 [Compound 34, 5-Chloro-1,8,10,12,16,22,26,32-octaazapentacyclo[24.2.2.1˜3.7˜0.1˜9,13˜0.1˜14.18˜]tritriaconta-3(33), 4,6,9(32), 10,12,14(31), 15,17-nonaen-23-one]	repeated as hits	8907	9.99E+07	56.3 % of positive control	35.0 % of positive control	56.3 % of positive control	35.0 % of positive control	9.99E+07	–	–	–	–	–	–	–	–
CCN1CC(=O)NCCCc2cc(ccc2F)-c2ncnc(n2)Nc2cc(Cl)cc(c2)C1 [Compound 25, 10-Chloro-14-ethyl-22-fluoro-3,5,7,14,17,27-hexaazatetracyclo[19.3.1.1˜2,6˜0.1˜8,12˜]heptacosa-1(25), 2(27), 3,5,8(26), 9,11,21,23-nonaen-16-one]	–	6571	7.60E+07	41.6 % of positive control	26.6 % of positive control	41.6 % of positive control	26.6 % of positive control	7.60E+07	–	–	–	–	–	–	–	–
